Test results published in patent US11352399B2, “Peptide for toll-like receptor (TLR) inhibition and pharmaceutical composition comprising same” (GENESEN CO., LTD., priority 2017, dated 2022).

How the values were obtained:
[1] = system: TLR4 signaling pathways; assay: Western blotting of NF-κB, IRF3 and MAPK in LPS-treated RAW 264.7 cells; format: cell-based, mouse
Experimental: (§1) In order to perform Western blotting, a pre-protein extraction solution (M-PER, Thermo Fisher Scientific Inc.) was mixed with a protease and phosphatase inhibitor mixture, and was added to RAW 264.7 cell or hPBMC cell pellets. The pellets were cooled for 10 minutes, and then the lysates were centrifuged at 16000×g for 10 minutes. Then, NE-PER nuclear and cytoplasmic extraction reagents (Thermo Fisher Scientific Inc.) were used to extract cytoplasmic and nuclear proteins, respectively, and a BCA kit (Sigma-Alderich Co. LLC) was used to measure concentrations of the proteins. Subsequently, the same amounts of proteins were developed on SDS-polyacrylamide gels, and electrophoresis was performed using the Mini-PROTEAN Tetra Cell two-dimensional electrophoresis system (Bio-Rad Laboratories, Hercules, Calif., USA). The membrane was immunoblotted with primary antibodies by gentle shaking overnight at a temperature of 4° C. (in which the primary antibodies were antibodies against p-p65, p-JNK, p-IRF3, ERK, p38, and human IL-1β (Cell Signaling Technology Inc., Danvers, Mass., USA); p-ERK, p-p38, Iκ-Bα, JNK, ATF3, COX2, caspase-1, and β-actin (Santa Cruz Biotechnology Inc., Santa Cruz, Calif., USA); iNOS (BD Biosciences); IL-6 and mouse IL-1β (R&D Systems Inc., Minneapolis, Minn., USA); TNF-α (Thermo Fisher Scientific, Inc.); NLRP3 (Adipogen, San Diego, Calif., USA)). Then, after thorough shaking with PBST, the membrane was incubated with anti-mouse/-rabbit HRP-conjugated secondary antibodies (Thermo Fisher Scientific Inc.) for 2 hours; and the proteins were detected with SuperSignal West Pico ECL solution (Thermo Fisher Scientific Inc.) and were visualized with the Fuji LAS-3000 system (Fujifilm, Tokyo, Japan).
TLR4-mediated responses induced by LPS induce direct interactions between the TIR domain of TIRAP and MyD88, thereby activating MyD88-dependent signaling pathways. In addition, the TLR4-mediated responses induce interactions between the TIR domain of TRAM and TRIF, thereby also activating MyD88-independent signaling pathways. […]

[2] = system: TLR4 signaling pathways; assay: Western blotting of NF-κB and MAPK in LPS-treated hPBMC cells; format: cell-based, human; details: LPS together with TIP1
Experimental: as §1, with “(in which the primary antibodies were antibodies against p-p65, p-JNK, p-IRF3, ERK, p38, and human IL-1β (Cell Signaling Technology Inc., Danvers, Mass., USA); p-ERK, p-p38, Iκ-Bα, JNK, ATF3, COX2, caspase-1, and β-actin (Santa Cruz Biotechnology Inc., Santa Cruz, Calif., USA); iNOS (BD Biosciences); IL-6 and mouse IL-1β (R&D Systems Inc., Minneapolis, Minn., USA); TNF-α (Thermo Fisher Scientific, Inc.); NLRP3 (Adipogen, San Diego, Calif., USA)).” left out, “Japan). […]” for “Japan).”

[3] = system: RAW 264.7 cells; assay: NO secretion level in RAW 264.7 culture supernatant; format: cell-based, mouse; details: TIP1 and LPS
Experimental: (§2) RAW 264.7 cells and mBMDM cells were dispensed into 96-well plates (BD Biosciences) to a cell number of 2×10^5 cells/well and incubated overnight. Then, a NO level of the culture supernatant was measured using a NO detection kit (iNtRON Biotechnology Inc., Seongnam, Korea). Absorbance was measured at 550 nm using a microplate reader spectrophotometer (Molecular Devices Inc.), and the results were analyzed using Softmax Pro 5.3 software (Molecular Devices Inc.).
In addition, according to the method described in Example 2-7, a NO level in the culture supernatant of RAW 264.7 cells was measured using a NO detection kit. The results are illustrated in FIGS. 5(a)-5(c).

[4] = system: hPBMC cells; assay: NO secretion in LPS-treated hPBMC cells; format: cell-based, human; details: together with LPS, FIG. 12(b)
[5] = system: C57BL/6J mice, mouse sepsis model; assay: Renal and hepatic damage markers and cytokines in plasma, mouse sepsis model (24 hours); format: in vivo; details: TIP1 and LPS
Experimental: Using the isolated plasma, secretion levels of TNF-α and IL-6 were measured by the method in Experimental Example 9, and changes in secretion levels of the renal damage markers, blood urea nitrogen (BUN) and creatinine (Cr), and the hepatic damage markers, aspartate aminotransferase (AST) and alanine aminotransferase (ALT) were analyzed through VETTEST-8008-system (IDEXX). The results are illustrated in FIGS. 16(a)-16(f).

[6] = system: mBMDM cells (LPS-induced); assay: LPS-induced cytokine and NO secretion in mBMDM cells; format: cell-based, mouse
Experimental: (§3) RAW 264.7 cells, THP1 cells, and mBMDM cells were dispensed into 96-well plates to a cell number of 2×10^5 cells/well, or into 24-well plates to a cell number of 5×10^5 cells/well. Incubation was performed overnight. Subsequently, combined treatment with TIP1 and LPS was performed. After 24 hours, secretion levels of IFN-β, IL-6, and TNF-α were measured using a […] (BioLegend), Mouse IL-6 Platinum ELISA (eBiosciences), and a Mouse TNF alpha ELISA Ready SET-Go! kit (eBiosciences). Absorbance was measured at 450 nm using a microplate reader spectrophotometer (Molecular Devices), and the results were analyzed using Softmax Pro 5.3 software (Molecular Devices Inc.).
as §2
TNF-α, IL-6, IFN-β levels in the culture supernatant of mBMDM cells were measured using mouse TNF-α, IL-6, IFN-β Ready-SET-Go! ELISA kits according to the method described in Example 2-5, and a NO level in the supernatant was measured according to the method described in Example 2-7. The results are illustrated in FIGS. 6(a)-6(d).

[7] = target: T1, TLR2/6 (Mus musculus, UniProt Q9EPW9+Q9QUN7); assay: TNF-α secretion in RAW 264.7 cells with FSL-1; format: cell-based
T1 construct: host or cells: RAW 264.7

[8] = system: NLRP3 inflammasome; assay: IL-1β secretion (ELISA) in LPS/ATP-treated THP1 cells; format: cell-based, human; details: TIP1 and LPS/ATP
[9] = system: RAW 264.7 cells (LPS-induced TLR4 signaling); assay: Cytokine secretion (ELISA) in LPS-treated RAW 264.7 cells; format: cell-based, mouse; details: TIP1 and LPS
Experimental: as §3
TNF-α, IL-6, IFN-β levels in the culture supernatant of RAW 264.7 cells were measured using mouse TNF-α, IL-6, IFN-β Ready-SET-Go! ELISA kits according to the method described in Example 2-5. The results are illustrated in FIGS. 4(a)-4(c).

[10] = LPS together with TIP1, FIG. 2(a)

T1 sequence (Q9QUN7 25-784): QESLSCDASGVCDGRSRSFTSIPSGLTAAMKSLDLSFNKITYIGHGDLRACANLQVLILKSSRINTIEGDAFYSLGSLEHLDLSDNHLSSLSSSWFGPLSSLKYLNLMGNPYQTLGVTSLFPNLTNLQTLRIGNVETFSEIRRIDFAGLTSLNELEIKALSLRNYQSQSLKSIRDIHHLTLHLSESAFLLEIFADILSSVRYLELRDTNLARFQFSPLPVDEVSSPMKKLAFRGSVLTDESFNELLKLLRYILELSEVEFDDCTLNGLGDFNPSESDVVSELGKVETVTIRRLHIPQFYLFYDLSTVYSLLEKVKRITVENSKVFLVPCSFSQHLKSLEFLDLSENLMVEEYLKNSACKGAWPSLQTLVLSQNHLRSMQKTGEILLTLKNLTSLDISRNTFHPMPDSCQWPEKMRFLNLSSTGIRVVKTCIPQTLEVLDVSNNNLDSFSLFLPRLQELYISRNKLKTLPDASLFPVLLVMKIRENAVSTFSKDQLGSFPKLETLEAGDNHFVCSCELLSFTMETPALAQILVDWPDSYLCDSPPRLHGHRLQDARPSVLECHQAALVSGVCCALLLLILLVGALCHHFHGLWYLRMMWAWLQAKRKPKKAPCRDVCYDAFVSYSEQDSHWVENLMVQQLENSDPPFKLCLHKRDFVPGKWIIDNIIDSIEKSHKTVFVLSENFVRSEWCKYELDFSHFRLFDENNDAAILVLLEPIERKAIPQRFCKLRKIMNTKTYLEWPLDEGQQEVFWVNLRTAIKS
T1 sequence (Q9EPW9 28-795): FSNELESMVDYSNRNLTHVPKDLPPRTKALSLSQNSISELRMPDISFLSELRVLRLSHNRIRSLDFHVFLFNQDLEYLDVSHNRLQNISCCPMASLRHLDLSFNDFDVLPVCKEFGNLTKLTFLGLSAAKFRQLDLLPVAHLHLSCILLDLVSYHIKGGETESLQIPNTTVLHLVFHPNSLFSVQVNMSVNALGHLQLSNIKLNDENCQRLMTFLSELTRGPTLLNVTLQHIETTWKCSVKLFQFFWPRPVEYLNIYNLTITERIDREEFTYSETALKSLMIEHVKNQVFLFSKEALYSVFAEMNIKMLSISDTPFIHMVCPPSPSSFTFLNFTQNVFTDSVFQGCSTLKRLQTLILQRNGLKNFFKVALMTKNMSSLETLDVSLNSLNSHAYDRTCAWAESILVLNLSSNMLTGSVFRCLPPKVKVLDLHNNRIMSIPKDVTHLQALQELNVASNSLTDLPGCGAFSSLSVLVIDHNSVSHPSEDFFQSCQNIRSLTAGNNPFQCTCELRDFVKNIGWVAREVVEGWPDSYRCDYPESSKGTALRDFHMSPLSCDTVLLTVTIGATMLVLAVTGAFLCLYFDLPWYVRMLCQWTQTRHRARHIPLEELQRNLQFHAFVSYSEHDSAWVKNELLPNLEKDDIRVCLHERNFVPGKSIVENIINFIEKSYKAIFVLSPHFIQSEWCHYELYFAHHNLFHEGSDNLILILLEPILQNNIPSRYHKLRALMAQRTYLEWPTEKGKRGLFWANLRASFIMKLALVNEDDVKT

## RQIKIWFQNRRMKWKKSHCRVLLI (TIP1)
[1]; [10]
  NF-κB activity (Western blotting): NF-κB activity was inhibited
  degree of degradation of Iκ-Bα, and activity of IRF3 and ATF3: decreased
[1]; LPS together with TIP1, FIG. 2(b)
  MAPK activity (phosphorylation of ERK, JNK, p38): MAPK activity was inhibited
[2]
  MAPK activity (phosphorylation of ERK, JNK, p38): MAPK activity is inhibited
  NF-κB activity (Iκ-Bα, Western blotting): NF-κB activity was inhibited
[3]
  extracellular secretion of NO: effectively decreased
[4]
  NO secretion level: highest decreasing effect on NO secretion level
[5]
  alanine aminotransferase (ALT), hepatic damage marker: remarkably decreased
  aspartate aminotransferase (AST), hepatic damage marker: remarkably decreased
  blood urea nitrogen (BUN), renal damage marker: remarkably decreased
  creatinine (Cr), renal damage marker: remarkably decreased
  secretion level of IL-6 in plasma: remarkably decreased
  secretion level of TNF-α in plasma: remarkably decreased
[6]
  LPS-induced secretion level of IL-6: decreased
  LPS-induced secretion level of NO: decreased
  LPS-induced secretion level of TNF-α: decreased
[7]
  secretion level of TNF-α: decreased
[8]
  secretion level of IL-1β: decreased
[9]
  secretion of IFN-β: decreased in a concentration-dependent manner
  secretion of IL-6: decreased in a concentration-dependent manner
  secretion of TNF-α: decreased in a concentration-dependent manner
